Experimental data: publication PMC2840623 (Biochemistry, 2010)

Key:
[1] = molecular target: epi-isozizaene synthase (EIZS) (Streptomyces coelicolor, UniProt Q9K499, F198A); test: X-ray crystal structure, […] Å; assay type: binding; conditions: complex with 3 Mg2+ and PPi; active site, alternative orientation
[2] = molecular target: T1, epi-isozizaene synthase (EIZS) (Streptomyces coelicolor, UniProt Q9K499); test: X-ray crystal structure, […] Å; assay type: binding; conditions: complex with 3 Mg2+ and BTAC; active site
T1 sequence (Q9K499 1-361): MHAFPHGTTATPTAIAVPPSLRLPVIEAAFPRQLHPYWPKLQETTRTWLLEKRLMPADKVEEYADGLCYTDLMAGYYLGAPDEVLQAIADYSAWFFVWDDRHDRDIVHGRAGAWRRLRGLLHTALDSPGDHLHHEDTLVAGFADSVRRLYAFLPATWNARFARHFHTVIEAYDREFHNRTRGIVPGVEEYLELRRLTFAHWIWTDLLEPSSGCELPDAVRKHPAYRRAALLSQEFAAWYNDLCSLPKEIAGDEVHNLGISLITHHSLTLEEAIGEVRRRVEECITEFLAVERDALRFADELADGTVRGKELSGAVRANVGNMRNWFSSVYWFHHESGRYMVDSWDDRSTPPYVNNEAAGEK

Chain of epi-isozizaene synthase (EIZS) (Streptomyces coelicolor, UniProt Q9K499, F198A) (Q9K499 whole entry F198A): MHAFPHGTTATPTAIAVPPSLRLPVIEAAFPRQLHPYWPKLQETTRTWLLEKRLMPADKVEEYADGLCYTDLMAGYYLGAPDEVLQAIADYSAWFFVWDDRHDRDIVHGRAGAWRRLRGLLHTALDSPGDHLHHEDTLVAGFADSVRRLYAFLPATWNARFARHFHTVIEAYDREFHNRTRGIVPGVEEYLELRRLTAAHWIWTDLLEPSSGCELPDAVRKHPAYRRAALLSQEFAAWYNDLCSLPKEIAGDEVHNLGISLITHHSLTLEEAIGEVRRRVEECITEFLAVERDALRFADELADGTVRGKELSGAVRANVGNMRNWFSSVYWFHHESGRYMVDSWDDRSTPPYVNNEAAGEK

Structure (SMILES) | X-ray crystal structure, 1.64 Å [1] | X-ray crystal structure, 1.60 Å [2]
CC[N+](CC)(CC)Cc1ccccc1 [BTAC, benzyltriethylammonium cation] | the BTAC molecule occupies an alternative position | 
O=P(O)(O)OP(=O)(O)O [PPi, inorganic pyrophosphate] |  | The PPi anion also accepts hydrogen bonds from the side chains of R194, K247
